The values below come from patent publication US7928107B2, “Quinazolines useful as modulators of ion channels” (Vertex Pharmaceuticals Incorporated, priority 2004, dated 2011).

The target of this experiment is NaV 1.8 channel (Homo sapiens, UniProt Q9Y5Y9). The experiment in a line: Activity against NaV 1.8 channel (optical membrane potential assay). It counts as cell-based. The method, boiled down: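 FRET membrane-potential assay (coumarin CC2-DMPE donor, oxonol DiSBAC2(3) acceptor plus veratridine) on VIPR; compound added with oxonol for 20–30 min before Na+ add-back stimulation. Activity from background-subtracted 460/580 nm ratio change (baseline 2–7 s, response 15–24 s) relative to tetracaine positive and drug-free negative controls.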

Where only a bound is given, the exact number is not on record here.

Sequence of NaV 1.8 channel (Q9Y5Y9 whole entry): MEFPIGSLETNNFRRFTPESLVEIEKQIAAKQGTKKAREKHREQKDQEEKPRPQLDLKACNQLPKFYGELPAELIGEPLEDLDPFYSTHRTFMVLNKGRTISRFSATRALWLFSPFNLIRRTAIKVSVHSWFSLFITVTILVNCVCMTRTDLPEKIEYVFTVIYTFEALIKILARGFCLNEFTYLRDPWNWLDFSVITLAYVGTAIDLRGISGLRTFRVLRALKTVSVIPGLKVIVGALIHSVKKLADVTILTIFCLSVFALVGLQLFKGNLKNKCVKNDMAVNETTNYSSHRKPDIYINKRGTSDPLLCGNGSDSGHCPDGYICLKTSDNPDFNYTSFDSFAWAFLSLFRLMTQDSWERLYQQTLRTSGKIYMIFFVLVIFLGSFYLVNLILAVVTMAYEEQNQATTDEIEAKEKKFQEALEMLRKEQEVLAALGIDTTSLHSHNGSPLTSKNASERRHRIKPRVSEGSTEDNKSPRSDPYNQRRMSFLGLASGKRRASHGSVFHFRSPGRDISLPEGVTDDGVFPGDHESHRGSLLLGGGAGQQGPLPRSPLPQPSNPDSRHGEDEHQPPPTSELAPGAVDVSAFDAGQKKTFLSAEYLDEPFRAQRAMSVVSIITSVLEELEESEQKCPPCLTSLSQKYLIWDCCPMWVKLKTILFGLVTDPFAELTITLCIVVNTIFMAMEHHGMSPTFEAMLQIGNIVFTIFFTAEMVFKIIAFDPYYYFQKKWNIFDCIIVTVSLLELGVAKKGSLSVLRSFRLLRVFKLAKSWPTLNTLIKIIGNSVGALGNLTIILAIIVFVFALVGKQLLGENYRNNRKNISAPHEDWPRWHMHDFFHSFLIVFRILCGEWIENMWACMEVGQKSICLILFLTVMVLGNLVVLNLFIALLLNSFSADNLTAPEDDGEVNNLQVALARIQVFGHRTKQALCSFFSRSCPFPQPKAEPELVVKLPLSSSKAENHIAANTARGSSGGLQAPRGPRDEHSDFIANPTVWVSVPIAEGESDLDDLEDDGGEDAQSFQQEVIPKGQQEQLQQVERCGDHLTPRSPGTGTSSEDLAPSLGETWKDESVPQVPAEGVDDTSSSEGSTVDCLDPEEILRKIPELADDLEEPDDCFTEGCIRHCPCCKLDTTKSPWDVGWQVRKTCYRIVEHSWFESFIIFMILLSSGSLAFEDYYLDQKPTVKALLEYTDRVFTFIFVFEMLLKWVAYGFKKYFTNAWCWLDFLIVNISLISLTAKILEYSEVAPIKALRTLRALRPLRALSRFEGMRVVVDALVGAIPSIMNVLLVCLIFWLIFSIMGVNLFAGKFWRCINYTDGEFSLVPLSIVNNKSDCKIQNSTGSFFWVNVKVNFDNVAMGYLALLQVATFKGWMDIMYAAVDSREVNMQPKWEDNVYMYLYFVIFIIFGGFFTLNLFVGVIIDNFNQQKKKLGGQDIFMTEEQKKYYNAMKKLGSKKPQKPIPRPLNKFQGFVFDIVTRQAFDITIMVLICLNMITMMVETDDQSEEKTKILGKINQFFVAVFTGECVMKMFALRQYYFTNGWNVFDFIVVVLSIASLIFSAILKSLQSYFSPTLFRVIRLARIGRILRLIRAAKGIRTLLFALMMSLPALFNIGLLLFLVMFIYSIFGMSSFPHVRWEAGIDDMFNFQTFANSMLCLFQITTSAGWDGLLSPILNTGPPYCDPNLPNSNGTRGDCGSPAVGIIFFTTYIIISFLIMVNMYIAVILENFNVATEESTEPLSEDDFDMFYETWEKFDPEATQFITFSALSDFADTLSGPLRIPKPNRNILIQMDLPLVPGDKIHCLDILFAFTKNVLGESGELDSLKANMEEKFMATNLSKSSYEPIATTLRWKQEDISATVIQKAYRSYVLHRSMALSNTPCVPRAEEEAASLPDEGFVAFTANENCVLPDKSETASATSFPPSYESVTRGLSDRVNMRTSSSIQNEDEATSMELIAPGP

For the compound `Cc1ccc2c(N3CCN(C(=O)[C@H](O)CC(=O)N(C)C)CC3)nc(-c3ccccc3O)nc2c1` [Example 104, (R)-3-Hydroxy-4-(4-(2-(2-hydroxyphenyl)-7-methylquinazolin-4-yl)piperazin-1-yl)-N,N-dimethyl-4-oxobutanamide], the IC50 is greater than 10 µM.

With `Cc1ccc2c(N3CC(CNC(=O)C4CCCO4)C3)nc(-c3ccccc3O)nc2c1` (stereo not drawn) [Example 417], the IC50 was greater than 10 µM.

Consider `Cc1ccc2c(N3CCC(NC(=O)[C@H]4CCCO4)CC3)nc(-c3ccccc3O)nc2c1` [Example 276, (R)-Tetrahydro-furan-2-carboxylic acid {1-[2-(2-hydroxy-phenyl)-7-methyl-quinazolin-4-yl]-piperidin-4-yl}-amide], for which the IC50 lay in the range of 2 to 10 µM.

As to `CCC(O)(CC)C(=O)NC1CCN(c2nc(-c3ccccc3O)nc3ccccc23)CC1` [Example 240, 2-Ethyl-2-hydroxy-N-(1-(2-(2-hydroxyphenyl)quinazolin-4-yl)piperidin-4-yl)butanamide], the IC50 is greater than 10 µM.

With `Cc1ccc2c(N3CCN(C(=O)OCc4ccncc4)CC3)nc(-c3ccccc3O)nc2c1` [Example 152, (Pyridin-4-yl)methyl 4-(2-(2-hydroxyphenyl)-7-methylquinazolin-4-yl)piperazine-1-carboxylate], the IC50 is greater than 10 µM.

With `Cc1ccc2c(N3CCC[C@H](CNC(=O)O[C@H]4CCOC4)C3)nc(-c3ccccc3O)nc2c1` [Example 217, (S)-Tetrahydrofuran-3-yl ((R)-1-(2-(2-hydroxyphenyl)-7-methylquinazolin-4-yl)piperidin-3-yl)methylcarbamate], the IC50 was greater than 10 µM.

Consider `COCCOC(=O)NC[C@@H]1CCN(c2nc(-c3ccccc3O)nc3cc(C)ccc23)C1` [Example 366, 2-Methoxyethyl ((S)-1-(2-(2-hydroxyphenyl)-7-methylquinazolin-4-yl)pyrrolidin-3-yl)methylcarbamate], for which the IC50 lay in the range of 2 to 10 µM.

With `Cc1ccc2c(N3CCN(C(=O)O[C@@H]4CCOC4)CC3)nc(-c3ccccc3O)nc2c1` [Example 182], the IC50 was in the range of 2 to 10 µM.

Turning to `Cc1ccc2c(N3CC[C@@H](NC(=O)O[C@H]4CCOC4)C3)nc(-c3c(O)cccc3F)nc2c1` [Example 345, (S)-Tetrahydrofuran-3-yl (R)-1-(2-(2-fluoro-6-hydroxyphenyl)-7-methylquinazolin-4-yl)pyrrolidin-3-ylcarbamate], the IC50 lay within 2 to 10 µM.

As to `O=C(OCc1cccnc1)N1CCN(c2nc(-c3ccccc3O)nc3ccccc23)CC1` [Example 107, (Pyridin-3-yl)methyl 4-(2-(2-hydroxyphenyl)quinazolin-4-yl)piperazine-1-carboxylate], the IC50 was 2 to 10 µM.

As to `Cc1ccc2c(N3CC[C@H](NC(=O)O[C@H]4CCOC4)C3)nc(-c3ccccc3O)nc2c1` [Example 304, (S,S)-{1-[2-(2-Hydroxy-phenyl)-7-methyl-quinazolin-4-yl]-pyrrolidin-3-yl}-carbamic acid tetrahydro-furan-3-yl ester], the IC50 is greater than 10 µM.

Regarding `O=C(N[C@@H]1CCN(c2nc(-c3ccccc3O)nc3ccc(F)cc23)C1)c1ccccn1` [Example 348, N—((R)-1-(6-Fluoro-2-(2-hydroxyphenyl)quinazolin-4-yl)pyrrolidin-3-yl)picolinamide], the IC50 was greater than 10 µM.

On to `Cc1ccc2c(N3CC[C@@H](NC(=O)[C@H]4CCCO4)C3)nc(-c3ccccc3O)nc2c1` [Example 302, (R,R)-Tetrahydro-furan-2-carboxylic acid {1-[2-(2-hydroxy-phenyl)-7-methyl-quinazolin-4-yl]-pyrrolidin-3-yl}-amide], for which the IC50 is greater than 10 µM.

With `Cc1ccc2c(N3CCN(C(=O)O[C@H]4CCOC4)CC3)nc(-c3ccccc3O)nc2c1` [Example 183], the IC50 is 2 to 10 µM.

As for `CC[C@@H](O)C(=O)NC1CCN(c2nc(-c3ccccc3O)nc3cc(C)ccc23)CC1` [Example 243, (2R)-2-Hydroxy-N-(1-(2-(2-hydroxyphenyl)-7-methylquinazolin-4-yl)piperidin-4-yl)butanamide], the IC50 was greater than 10 µM.

As to `Cc1ccc2c(N3CC[C@@H](NC(=O)c4cccc(OC(F)(F)F)c4)C3)nc(-c3ccccc3O)nc2c1` [Example 325, N—((R)-1-(2-(2-Hydroxyphenyl)-7-methylquinazolin-4-yl)pyrrolidin-3-yl)-3-(trifluoromethoxy)benzamide], the IC50 was greater than 10 µM.

Regarding `Cc1ccc2c(N3CCC[C@@H](CNC(=O)OCC(C)C)C3)nc(-c3ccccc3O)nc2c1` [Example 252, Isobutyl ((S)-1-(2-(2-hydroxyphenyl)-7-methylquinazolin-4-yl)piperidin-3-yl)methylcarbamate], the IC50 is greater than 10 µM.

On to `Cc1ccc2c(N3CC[C@@H](NC(=O)c4cccc(C#N)c4)C3)nc(-c3ccccc3O)nc2c1` [Example 327, 3-Cyano-N—((R)-1-(2-(2-hydroxyphenyl)-7-methylquinazolin-4-yl)pyrrolidin-3-yl)benzamide], for which the IC50 is greater than 10 µM.

With `COCCOC(=O)NC[C@@H]1CCCN(c2nc(-c3ccccc3O)nc3cc(C)ccc23)C1` [Example 257, 2-Methoxyethyl ((S)-1-(2-(2-hydroxyphenyl)-7-methylquinazolin-4-yl)piperidin-3-yl)methylcarbamate], the IC50 lay in the range of 2 to 10 µM.

`CC[C@H](O)C(=O)N1CCN(c2nc(-c3ccccc3O)nc3cc(C)ccc23)CC1` [Example 137, (S)-2-Hydroxy-1-(4-(2-(2-hydroxyphenyl)-7-methylquinazolin-4-yl)piperazin-1-yl)butan-1-one]: the IC50 is 2 to 10 µM.

With `Cc1ccc2c(N3CCC(NC(=O)[C@@H](O)CC(C)C)CC3)nc(-c3ccccc3O)nc2c1` [Example 268], the IC50 was greater than 10 µM.

With `O=C(N[C@@H]1CCN(c2nc(-c3ccccc3O)nc3ccc(F)cc23)C1)C1CC1` [Example 329, N—((R)-1-(6-Fluoro-2-(2-hydroxyphenyl)quinazolin-4-yl)pyrrolidin-3-yl)cyclopropanecarboxamide], the IC50 fell in the range of 2 to 10 µM.

`Cc1ccc2c(N3CC[C@@H](NC(=O)c4ccccn4)C3)nc(-c3ccccc3O)nc2c1` [Example 354, N—((R)-1-(2-(2-Hydroxyphenyl)-7-methylquinazolin-4-yl)pyrrolidin-3-yl)picolinamide]: the IC50 was in the range of 2 to 10 µM.

For `CCOC(=O)NCC1CCCN(c2nc(-c3ccccc3O)nc3cc(C)ccc23)C1` (stereo not drawn) [Example 251, Ethyl (1-(2-(2-hydroxyphenyl)-7-methylquinazolin-4-yl)piperidin-3-yl)methylcarbamate], the IC50 lay within 2 to 10 µM.

With `O=C(O[C@@H]1CCOC1)N1CCN(c2nc(-c3ccccc3O)nc3ccc(F)cc23)CC1` [Example 148, (R)-Tetrahydrofuran-3-yl 4-(6-fluoro-2-(2-hydroxyphenyl)quinazolin-4-yl)piperazine-1-carboxylate], the IC50 was 2 to 10 µM.

Consider `O=C(NC1CCN(c2nc(-c3ccccc3O)nc3ccc(F)cc23)CC1)[C@H]1CCCO1` [Example 224, (2R)—N-(1-(6-Fluoro-2-(2-hydroxyphenyl)quinazolin-4-yl)piperidin-4-yl)-tetrahydrofuran-2-carboxamide], for which the IC50 was greater than 10 µM.

For the compound `CCCC(O)C(=O)N1CCN(c2nc(-c3ccccc3O)nc3cc(C)ccc23)CC1` (stereo not drawn) [Example 134, 2-Hydroxy-1-(4-(2-(2-hydroxyphenyl)-7-methylquinazolin-4-yl)piperazin-1-yl)pentan-1-one], the IC50 lay in the range of 2 to 10 µM.

`CC[C@@H](O)C(=O)N1CCN(c2nc(-c3ccccc3O)nc3ccccc23)CC1` [Example 118, (R)-2-Hydroxy-1-(4-(2-(2-hydroxyphenyl)quinazolin-4-yl)piperazin-1-yl)butan-1-one]: the IC50 was in the range of 2 to 10 µM.

In the case of `CCCC(O)C(=O)NC1CCN(c2nc(-c3ccccc3O)nc3ccccc23)CC1` (stereo not drawn) [Example 241, 2-Hydroxy-N-(1-(2-(2-hydroxyphenyl)quinazolin-4-yl)piperidin-4-yl)pentanamide], the half-maximal inhibitory concentration (IC50) was greater than 10 µM.

As to `O=C(NC[C@@H]1CCN(c2nc(-c3ccccc3O)nc3ccc(F)cc23)C1)O[C@@H]1CCOC1` [Example 355, (R)-Tetrahydrofuran-3-yl ((S)-1-(6-fluoro-2-(2-hydroxyphenyl)quinazolin-4-yl)pyrrolidin-3-yl)methylcarbamate], the IC50 is greater than 10 µM.

As for `Cc1ccc2c(N3CCC(NC(=O)C4CCOCC4)CC3)nc(-c3ccccc3O)nc2c1` [Example 220, Tetrahydro-N-(1-(2-(2-hydroxyphenyl)-7-methylquinazolin-4-yl)piperidin-4-yl)-2H-pyran-4-carboxamide], the IC50 is greater than 10 µM.

For `Cc1ccc2c(N3CCN(C(=O)C(C)(O)C(F)(F)F)CC3)nc(-c3ccccc3O)nc2c1` (stereo not drawn) [Example 110, 2-(Trifluoromethyl)-2-hydroxy-1-(4-(2-(2-hydroxyphenyl)-7-methylquinazolin-4-yl)piperazin-1-yl)propan-1-one], the IC50 is greater than 10 µM.

As to `Cc1ccc2c(N3CC[C@@H](NC(=O)C4CC4)C3)nc(-c3ccccc3O)nc2c1` [Example 312, (R)-Cyclopropanecarboxylic acid {1-[2-(2-hydroxy-phenyl)-7-methyl-quinazolin-4-yl]-pyrrolidin-3-yl}-amide], the IC50 lay within 2 to 10 µM.

On to `Cc1ccc2c(N3CCC[C@@H](NC(=O)[C@H]4CCCO4)C3)nc(-c3ccccc3O)nc2c1` [Example 206, (2R)-Tetrahydro-N—((R)-1-(2-(2-hydroxyphenyl)-7-methylquinazolin-4-yl)piperidin-3-yl)furan-2-carboxamide], for which the IC50 was 2 to 10 µM.

With `Cc1ccc2c(N3CCN(C(=O)OCC4CCOC4)CC3)nc(-c3c(O)cccc3F)nc2c1` (stereo not drawn) [Example 162, (Tetrahydrofuran-3-yl)methyl 4-(2-(2-fluoro-6-hydroxyphenyl)-7-methylquinazolin-4-yl)piperazine-1-carboxylate], the half-inhibitory concentration (IC50) lay in the range of 2 to 10 µM.

Consider `CCOC(=O)NC[C@@H]1CCN(c2nc(-c3ccccc3O)nc3cc(C)ccc23)C1` [Example 364, Ethyl ((S)-1-(2-(2-hydroxyphenyl)-7-methylquinazolin-4-yl)pyrrolidin-3-yl)methylcarbamate], for which the IC50 was less than 2 µM.
